# Measured values from patent US20060270666A1, “Quinoxaline derivatives as neutrophil elastase inhibitors and their use” (priority 2003, published 2006).
# Target: T1, Human Neutrophil Elastase (HNE) (Homo sapiens, UniProt P08246)
# T1 construct: Human Neutrophil Elastase (HNE) purified from serum (Calbiochem art. 324681); purchased Calbiochem 324681; host or cells: natural human material (serum)
# T1 sequence (P08246 30-267): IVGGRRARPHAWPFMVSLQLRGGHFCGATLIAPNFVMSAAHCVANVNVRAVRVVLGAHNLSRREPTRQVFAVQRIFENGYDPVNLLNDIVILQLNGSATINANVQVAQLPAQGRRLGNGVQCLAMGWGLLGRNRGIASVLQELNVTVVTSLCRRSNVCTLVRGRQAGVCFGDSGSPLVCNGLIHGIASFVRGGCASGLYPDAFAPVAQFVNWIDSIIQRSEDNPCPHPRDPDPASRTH
# Assay: Human Neutrophil Elastase Quenched-FRET Assay
# Format: biochemical
# Details: HNE purified from serum; substrate MeOSuc-AAPV-AMC; 15 min pre-incubation, 30 min incubation at room temperature; read-out: Inhibition of Human Neutrophil Elastase IC50
# Experimental: Human Neutrophil Elastase Quenched-FRET Assay
# The assay uses Human Neutrophil Elastase (HNE) purified from serum (Calbiochem art. 324681; Ref. Baugh, R. J. et al., 1976, Biochemistry. 15, 836-841). HNE was stored in 50 mM NaOAc, 200 mM NaCl, pH 5.5 with added 30% glycerol at −20° C. The protease substrate used was Elastase Substrate V Fluorogenic, MeOSuc-AAPV-AMC (Calbiochem art. 324740; Ref. Castillo, M. J. et al., 1979, Anal. Biochem. 99, 53-64). The substrate was stored in DMSO at −20° C. The assay additions were as follows: Test compounds and controls were added to black 96-well flat-bottom plates (Greiner 655076), 1 μL in 100% DMSO, followed by 30 μL HNE in assay buffer with 0.01% TritonX-100. The assay buffer constitution was: 100 mM Tris (pH 7.5) and 500 mM NaCl. The enzyme and the compounds were incubated at room temperature for 15 minutes. Then 30 μl substrate in assay buffer was added. The assay was stopped after 30 minutes incubation at room temperature by adding 60 μl stop solution (140 mM acetic acid, 200 mM sodium monochloroacetate, 60 mM sodium acetate, pH 4.3). Fluorescence was measured on a Wallac 1420 Victor 2 instrument at settings: Excitation 380 nm, Emission 460 nm. IC50 values were determined using Xlfit curve fitting using model 205.
row,IC50,Compound
1,248 nM,"N#CC1CCC(CNC(=O)c2nc3ccccc3n(-c3cccc(C(F)(F)F)c3)c2=O)CC1 (stereo not drawn) [Example 2.10, N-[(4-Cyanocyclohexyl)methyl]-3-oxo-4-[3-(trifluoromethyl)phenyl]-3,4-dihydroquinoxaline-2-carboxamide]"
2,226 nM,"Cc1ccc(CNC(=O)c2nc3ccccc3n(-c3cccc(C(F)(F)F)c3)c2=O)cc1 [Example 2.12, N-(4-Methylbenzyl)-3-oxo-4-[3-(trifluoromethyl)phenyl]-3,4-dihydroquinoxaline-2-carboxamide]"
3,573 nM,"O=C(NCCc1ccc(F)cc1)c1nc2ccccc2n(-c2cccc(C(F)(F)F)c2)c1=O [Example 2.20, N-[2-(4-Fluorophenyl)ethyl]-3-oxo-4-[3-(trifluoromethyl)phenyl]-3,4-dihydroquinoxaline-2-carboxamide]"
